From the supplement of paper PMC10307832 come the findings set out here.

What all share (assay): relative viability (nuclei count vs DMSO), 5 days (fraction); higher = more cells survive
Compound in the assay “MK-2206 + Tozasertib”: NC1(c2ccc(-c3nc4ccn5c(=O)[nH]nc5c4cc3-c3ccccc3)cc2)CCC1 [MK-2206] + Cc1cc(Nc2cc(N3CCN(C)CC3)nc(Sc3ccc(NC(=O)C4CC4)cc3)n2)n[nH]1 [Tozasertib] (partner 0.1 µM)
In short, it runs like this: (§1)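 One day after seeding in 1536-well plates, lung cancer cell lines were dosed by pin tool. Dosing was either single-drug or a fixed anchor-drug dose plus five library-drug doses (not always all listed) in √10 steps. After 5 days, nuclei were stained in one fix-and-stain step and counted on 4× images, and relative viability is the nuclei count of treated wells over that of vehicle wells, given as the median of duplicate plates.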

Compound in the assay “Pictilisib + Alpelisib”: CS(=O)(=O)N1CCN(Cc2cc3nc(-c4cccc5[nH]ncc45)nc(N4CCOCC4)c3s2)CC1 [Pictilisib] + Cc1nc(NC(=O)N2CCC[C@H]2C(N)=O)sc1-c1ccnc(C(C)(C)C(F)(F)F)c1 [Alpelisib] (partner 2 µM)
In short, it runs like this:
as §1

Compound in the assay “MK-2206 + Crizotinib”: NC1(c2ccc(-c3nc4ccn5c(=O)[nH]nc5c4cc3-c3ccccc3)cc2)CCC1 [MK-2206] + C[C@@H](Oc1cc(-c2cnn(C3CCNCC3)c2)cnc1N)c1c(Cl)ccc(F)c1Cl [Crizotinib] (partner 1 µM)
In short, it runs like this:
as §1

Compound in the assay “Pictilisib + AZD7762”: CS(=O)(=O)N1CCN(Cc2cc3nc(-c4cccc5[nH]ncc45)nc(N4CCOCC4)c3s2)CC1 [Pictilisib] + NC(=O)Nc1cc(-c2cccc(F)c2)sc1C(=O)N[C@H]1CCCNC1 [AZD7762] (partner 0.2 µM)
The method, boiled down:
as §1

Compound in the assay “Pictilisib + Vorinostat”: CS(=O)(=O)N1CCN(Cc2cc3nc(-c4cccc5[nH]ncc45)nc(N4CCOCC4)c3s2)CC1 [Pictilisib] + O=C(CCCCCCC(=O)Nc1ccccc1)NO [Vorinostat] (partner 1 µM)
In short, it runs like this: as §1

201T: the relative viability in the assay with MK-2206 + Tozasertib (first compound 0.01 µM) came to 0.962; with MK-2206 + Tozasertib (first compound 0.03162 µM), 0.931; with MK-2206 + Tozasertib (first compound 0.3162 µM), 0.98; with MK-2206 + Tozasertib (first compound 1 µM), 0.948; in the assay with Pictilisib + Alpelisib (first compound 0.02 µM) it was 1.01; with Pictilisib + Alpelisib (first compound 0.06325 µM), 1.02. The relative viability was determined as 0.979 with Pictilisib + Alpelisib (first compound 0.6325 µM); 0.773 with Pictilisib + Alpelisib (first compound 2 µM); 1.02 with MK-2206 + Crizotinib (first compound 0.01 µM); 1.07 in the assay with MK-2206 + Crizotinib (first compound 0.03162 µM); 1.03 with MK-2206 + Crizotinib (first compound 0.3162 µM); 1.01 with MK-2206 + Crizotinib (first compound 1 µM). The relative viability with Pictilisib + AZD7762 (first compound 0.02 µM) was found to be 0.637; with Pictilisib + AZD7762 (first compound 0.06325 µM), 0.571; in the assay with Pictilisib + AZD7762 (first compound 0.6325 µM) it was 0.41; with Pictilisib + AZD7762 (first compound 2 µM), 0.448; in the assay with Pictilisib + Vorinostat (first compound 0.02 µM), 0.859; with Pictilisib + Vorinostat (first compound 0.06325 µM), 0.966. For the same cell line, the relative viability in the assay with Pictilisib + Vorinostat (first compound 0.6325 µM) is 0.869; with Pictilisib + Vorinostat (first compound 2 µM), 0.622.

In the case of A549, the relative viability in the assay with Pictilisib + Alpelisib (first compound 0.02 µM) was found to be 0.785; with Pictilisib + Alpelisib (first compound 0.06325 µM), 0.627; in the assay with Pictilisib + Alpelisib (first compound 0.6325 µM) it was 0.619; with Pictilisib + Alpelisib (first compound 2 µM), 0.345; with MK-2206 + Crizotinib (first compound 0.01 µM), 0.733; with MK-2206 + Crizotinib (first compound 0.03162 µM) it was 0.744. The relative viability with MK-2206 + Crizotinib (first compound 0.3162 µM) turned out to be 0.641; with MK-2206 + Crizotinib (first compound 1 µM) it was 0.535.

For A-427, the relative viability with MK-2206 + Tozasertib (first compound 0.01 µM) was found to be 0.218; in the assay with MK-2206 + Tozasertib (first compound 0.03162 µM), 0.197; with MK-2206 + Tozasertib (first compound 0.3162 µM), 0.191; with MK-2206 + Tozasertib (first compound 1 µM) it was 0.207; with Pictilisib + Alpelisib (first compound 0.02 µM), 1.13; with Pictilisib + Alpelisib (first compound 0.06325 µM) it was 1.09. In addition, the relative viability with Pictilisib + Alpelisib (first compound 0.6325 µM) is 1.06; with Pictilisib + Alpelisib (first compound 2 µM), 1.04; with MK-2206 + Crizotinib (first compound 0.01 µM), 0.896; in the assay with MK-2206 + Crizotinib (first compound 0.03162 µM) it was 0.824; with MK-2206 + Crizotinib (first compound 0.3162 µM), 0.742; in the assay with MK-2206 + Crizotinib (first compound 1 µM), 0.893. In addition, the relative viability with Pictilisib + AZD7762 (first compound 0.02 µM) amounted to 0.796; with Pictilisib + AZD7762 (first compound 0.06325 µM), 0.738; in the assay with Pictilisib + AZD7762 (first compound 0.6325 µM), 0.556; with Pictilisib + AZD7762 (first compound 2 µM) it was 0.403; in the assay with Pictilisib + Vorinostat (first compound 0.02 µM), 0.84; with Pictilisib + Vorinostat (first compound 0.06325 µM) it was 0.874. Besides, the results for the relative viability with Pictilisib + Vorinostat (first compound 0.6325 µM) and in the assay with Pictilisib + Vorinostat (first compound 2 µM) were 0.95 and 0.853, respectively.

Regarding ABC-1, the relative viability with MK-2206 + Tozasertib (first compound 0.01 µM) was 0.145; with MK-2206 + Tozasertib (first compound 0.03162 µM), 0.148; with MK-2206 + Tozasertib (first compound 0.3162 µM), 0.167; with MK-2206 + Tozasertib (first compound 1 µM) it was 0.163; in the assay with Pictilisib + Alpelisib (first compound 0.02 µM), 1.1; in the assay with Pictilisib + Alpelisib (first compound 0.06325 µM) it was 1.04. Further, the relative viability is 0.995 with Pictilisib + Alpelisib (first compound 0.6325 µM); 0.809 with Pictilisib + Alpelisib (first compound 2 µM); 1.3 in the assay with MK-2206 + Crizotinib (first compound 0.01 µM); 1.26 with MK-2206 + Crizotinib (first compound 0.03162 µM); 1.14 with MK-2206 + Crizotinib (first compound 0.3162 µM); 1.02 with MK-2206 + Crizotinib (first compound 1 µM). Also, the relative viability with Pictilisib + AZD7762 (first compound 0.02 µM) stood at 1; with Pictilisib + AZD7762 (first compound 0.06325 µM), 0.741; with Pictilisib + AZD7762 (first compound 0.6325 µM), 0.657; in the assay with Pictilisib + AZD7762 (first compound 2 µM) it was 0.609; in the assay with Pictilisib + Vorinostat (first compound 0.02 µM), 0.83; with Pictilisib + Vorinostat (first compound 0.06325 µM) it was 1.07. Further, the relative viability with Pictilisib + Vorinostat (first compound 0.6325 µM) amounted to 0.859; with Pictilisib + Vorinostat (first compound 2 µM), 0.691.

Turning to BEN, the relative viability was determined as 0.554 with MK-2206 + Tozasertib (first compound 0.01 µM); 0.621 with MK-2206 + Tozasertib (first compound 0.03162 µM); 0.416 with MK-2206 + Tozasertib (first compound 0.3162 µM); 0.443 in the assay with MK-2206 + Tozasertib (first compound 1 µM); 0.813 with Pictilisib + Alpelisib (first compound 0.02 µM); 1.08 with Pictilisib + Alpelisib (first compound 0.06325 µM). Further, the relative viability turned out to be 1.03 with Pictilisib + Alpelisib (first compound 0.6325 µM); 0.704 with Pictilisib + Alpelisib (first compound 2 µM); 0.906 with MK-2206 + Crizotinib (first compound 0.01 µM); 0.956 with MK-2206 + Crizotinib (first compound 0.03162 µM); 0.913 in the assay with MK-2206 + Crizotinib (first compound 0.3162 µM); 0.908 with MK-2206 + Crizotinib (first compound 1 µM). Also, the relative viability with Pictilisib + AZD7762 (first compound 0.02 µM) came out at 0.809; with Pictilisib + AZD7762 (first compound 0.06325 µM) it was 0.808; in the assay with Pictilisib + AZD7762 (first compound 0.6325 µM), 0.745; with Pictilisib + AZD7762 (first compound 2 µM), 0.447; with Pictilisib + Vorinostat (first compound 0.02 µM), 0.583; with Pictilisib + Vorinostat (first compound 0.06325 µM), 0.615. In addition, the values for the relative viability in the assay with Pictilisib + Vorinostat (first compound 0.6325 µM) and with Pictilisib + Vorinostat (first compound 2 µM) were 0.609 and 0.441, respectively.

CAL-12T: the relative viability is 0.289 with MK-2206 + Tozasertib (first compound 0.01 µM); 0.304 in the assay with MK-2206 + Tozasertib (first compound 0.03162 µM); 0.317 with MK-2206 + Tozasertib (first compound 0.3162 µM); 0.327 with MK-2206 + Tozasertib (first compound 1 µM); 1.32 with Pictilisib + Alpelisib (first compound 0.02 µM); 1.12 with Pictilisib + Alpelisib (first compound 0.06325 µM). The relative viability was determined as 1.19 in the assay with Pictilisib + Alpelisib (first compound 0.6325 µM); 0.883 with Pictilisib + Alpelisib (first compound 2 µM); 0.546 with MK-2206 + Crizotinib (first compound 0.01 µM); 0.688 with MK-2206 + Crizotinib (first compound 0.03162 µM); 0.488 with MK-2206 + Crizotinib (first compound 0.3162 µM); 0.491 with MK-2206 + Crizotinib (first compound 1 µM). Moreover, the relative viability turned out to be 0.609 with Pictilisib + AZD7762 (first compound 0.02 µM); 0.845 with Pictilisib + AZD7762 (first compound 0.06325 µM); 0.724 with Pictilisib + AZD7762 (first compound 0.6325 µM); 0.626 with Pictilisib + AZD7762 (first compound 2 µM); 0.755 with Pictilisib + Vorinostat (first compound 0.02 µM); 0.664 in the assay with Pictilisib + Vorinostat (first compound 0.06325 µM). Moreover, the relative viability with Pictilisib + Vorinostat (first compound 0.6325 µM) was 0.629; with Pictilisib + Vorinostat (first compound 2 µM), 0.283.

In the case of COR-L23, the relative viability in the assay with MK-2206 + Tozasertib (first compound 0.01 µM) came out at 0.186; with MK-2206 + Tozasertib (first compound 0.03162 µM) it was 0.243; with MK-2206 + Tozasertib (first compound 0.3162 µM), 0.234; with MK-2206 + Tozasertib (first compound 1 µM), 0.17; with Pictilisib + Alpelisib (first compound 0.02 µM), 0.821; in the assay with Pictilisib + Alpelisib (first compound 0.06325 µM), 0.804. The relative viability in the assay with Pictilisib + Alpelisib (first compound 0.6325 µM) is 0.8; with Pictilisib + Alpelisib (first compound 2 µM), 0.572; in the assay with MK-2206 + Crizotinib (first compound 0.01 µM) it was 0.69; with MK-2206 + Crizotinib (first compound 0.03162 µM), 0.691; with MK-2206 + Crizotinib (first compound 0.3162 µM) it was 0.796; in the assay with MK-2206 + Crizotinib (first compound 1 µM), 0.693. The relative viability came out at 0.491 with Pictilisib + Vorinostat (first compound 0.02 µM), 0.407 with Pictilisib + Vorinostat (first compound 0.06325 µM), 0.386 with Pictilisib + Vorinostat (first compound 0.6325 µM) and 0.286 in the assay with Pictilisib + Vorinostat (first compound 2 µM).

As for COR-L 105, the relative viability with MK-2206 + Tozasertib (first compound 0.01 µM) was 0.419; in the assay with MK-2206 + Tozasertib (first compound 0.03162 µM) it was 0.309; with MK-2206 + Tozasertib (first compound 0.3162 µM) it was 0.403; with MK-2206 + Tozasertib (first compound 1 µM) it was 0.345; in the assay with Pictilisib + Alpelisib (first compound 0.02 µM) it was 1.08; in the assay with Pictilisib + Alpelisib (first compound 0.06325 µM), 0.957. Moreover, the relative viability in the assay with Pictilisib + Alpelisib (first compound 0.6325 µM) stood at 0.861; with Pictilisib + Alpelisib (first compound 2 µM) it was 0.692; with MK-2206 + Crizotinib (first compound 0.01 µM), 0.789; with MK-2206 + Crizotinib (first compound 0.03162 µM), 0.798; in the assay with MK-2206 + Crizotinib (first compound 0.3162 µM), 0.782; in the assay with MK-2206 + Crizotinib (first compound 1 µM), 0.598. Moreover, the relative viability with Pictilisib + Vorinostat (first compound 0.02 µM) was 0.91; with Pictilisib + Vorinostat (first compound 0.06325 µM) it was 0.874; with Pictilisib + Vorinostat (first compound 0.6325 µM) it was 0.594; with Pictilisib + Vorinostat (first compound 2 µM) it was 0.606.

Take Calu-6: the relative viability with Pictilisib + Alpelisib (first compound 0.02 µM) came to 1.01; in the assay with Pictilisib + Alpelisib (first compound 0.06325 µM), 0.967; with Pictilisib + Alpelisib (first compound 0.6325 µM) it was 0.909; with Pictilisib + Alpelisib (first compound 2 µM), 0.833; with MK-2206 + Crizotinib (first compound 0.01 µM) it was 0.717; in the assay with MK-2206 + Crizotinib (first compound 0.03162 µM), 0.856. Further, the figures for the relative viability with MK-2206 + Crizotinib (first compound 0.3162 µM) and with MK-2206 + Crizotinib (first compound 1 µM) were 0.786 and 0.729, respectively.
